# Source: US9169254B2, “Spiroimidazolone derivative” (Chugai Seiyaku Kabushiki Kaisha, priority 2009, dated 2015)
# Molecular target: T1, human PTH1 receptor (Homo sapiens, UniProt Q03431)
# T1 sequence (Q03431 27-593): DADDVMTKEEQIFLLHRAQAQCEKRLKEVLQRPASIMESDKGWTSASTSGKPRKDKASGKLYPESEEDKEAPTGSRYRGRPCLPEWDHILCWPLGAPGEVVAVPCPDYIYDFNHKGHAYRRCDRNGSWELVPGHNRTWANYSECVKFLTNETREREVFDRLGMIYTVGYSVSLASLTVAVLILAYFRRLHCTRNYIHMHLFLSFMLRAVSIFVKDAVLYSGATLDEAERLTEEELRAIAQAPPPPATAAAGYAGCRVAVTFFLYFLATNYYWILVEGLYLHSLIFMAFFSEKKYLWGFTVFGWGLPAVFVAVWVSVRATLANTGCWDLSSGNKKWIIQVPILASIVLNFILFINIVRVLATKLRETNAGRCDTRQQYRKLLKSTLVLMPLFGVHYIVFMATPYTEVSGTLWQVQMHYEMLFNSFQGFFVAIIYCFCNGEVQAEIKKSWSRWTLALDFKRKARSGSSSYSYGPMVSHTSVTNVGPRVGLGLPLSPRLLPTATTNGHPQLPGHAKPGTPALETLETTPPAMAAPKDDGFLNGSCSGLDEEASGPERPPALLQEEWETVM
# Assay: In vitro cAMP signal activity in HKRK-B7 cells (LLC-PK1 cells overexpressing the human PTH1 receptor)
# Assay type: cell-based
# Details: HKRK-B7 cells; compound at 1×10^−3 M; cAMP produced as percentage of that produced by hPTH(1-34) at 100 nM
row,SMILES,cAMP production activity (%)
1,"Cc1cc(N(C)C(N)=O)cc(C)c1/C=C/S(=O)(=O)N1CCC2(CC1)N=C(c1cccc(OCCCC(F)(F)F)c1)NC2=O [Compound 1019, 1-[3,5-dimethyl-4-((E)-2-{4-oxo-2-[3-(4,4,4-trifluoro-butoxy)-phenyl]-1,3,8-triaza-spiro[4.5]dec-1-ene-8-sulfonyl}-vinyl)-phenyl]-1-methyl-urea]",72%
2,"Cc1cc(N(C)C(N)=O)cc(C)c1/C=C/S(=O)(=O)N1CCC2(CC1)N=C(c1ccc(OCCCC(F)(F)F)cc1)NC2=O [Compound 1020, 1-[3,5-dimethyl-4-((E)-2-{4-oxo-2-[4-(4,4,4-trifluoro-butoxy)-phenyl]-1,3,8-triaza-spiro[4.5]dec-1-ene-8-sulfonyl}-vinyl)-phenyl]-1-methyl-urea]",81%
3,"CCCCCc1ccc(C2=NC3(CCN(S(=O)(=O)/C=C/c4c(C)cc(N(C)C(N)=O)cc4C)CC3)C(=O)N2)cc1 [Compound 1021, 1-(3,5-dimethyl-4-{(E)-2-[4-oxo-2-(4-pentyl-phenyl)-1,3,8-triaza-spiro[4.5]dec-1-ene-8-sulfonyl]-vinyl}-phenyl)-1-methyl-urea]",137%
4,"CSCCCCCCCC1=NC2(CCN(S(=O)(=O)/C=C/c3c(C)cc(N(C)C(N)=O)cc3C)CC2)C(=O)N1 [Compound 1022, 1-(3,5-Dimethyl-4-{(E)-2-[2-(7-methylsulfanyl-heptyl)-4-oxo-1,3,8-triaza-spiro[4.5]dec-1-ene-8-sulfonyl]-vinyl}-phenyl)-1-methyl-urea]",105%
5,"CCCCC#CCCCC1=NC2(CCN(S(=O)(=O)/C=C/c3c(C)cc(N(C)C(N)=O)cc3C)CC2)C(=O)N1 [Compound 1024, 1-{3,5-dimethyl-4-[(E)-2-(2-non-4-ynyl-4-oxo-1,3,8-triaza-spiro[4.5]dec-1-ene-8-sulfonyl)-vinyl]-phenyl}-1-methyl-urea]",66%
6,"Cc1cc(N(C)C(N)=O)cc(C)c1CCS(=O)(=O)N1CCC2(CC1)N=C(c1ccc(F)c(OC(F)(F)F)c1)NC2=O [Compound 1028, 1-(4-{2-[2-(4-Fluoro-3-trifluoromethoxy-phenyl)-4-oxo-1,3,8-triaza-spiro[4.5]dec-1-ene-8-sulfonyl]-ethyl}-3,5-dimethyl-phenyl)-1-methyl-urea]",75%
7,"Cc1cc(N(C)C(N)=O)cc(C)c1CCS(=O)(=O)N1CCC2(CC1)N=C(c1ccc(C(C)(C)C)cc1)NC2=O [Compound 1030, 1-(4-{2-[2-(4-tert-butyl-phenyl)-4-oxo-1,3,8-triaza-spiro[4.5]dec-1-ene-8-sulfonyl]-ethyl}-3,5-dimethyl-phenyl)-1-methyl-urea]",115%
8,"Cc1cc(N(C)C(N)=O)cc(C)c1CCS(=O)(=O)N1CCC2(CC1)N=C(CCCCCCCCCCC1(C)COC1)NC2=O [Compound 1032, 1-[3,5-dimethyl-4-(2-{2-[10-(3-methyl-oxetan-3-yl)-decyl]-4-oxo-1,3,8-triaza-spiro[4.5]dec-1-ene-8-sulfonyl}-ethyl)-phenyl]-1-methyl-urea]",88%
9,"Cc1cc(N(C)C(=O)OC(C)(C)C)cc(C)c1CCS(=O)(=O)N1CCC2(CC1)N=C(C1CCCN1C(=O)OC(C)(C)C)NC2=O (stereo not drawn) [Compound 1033, 2-(8-{2-[4-(tert-Butoxycarbonyl-methyl-amino)-2,6-dimethyl-phenyl]-ethanesulfonyl}-4-oxo-1,3,8-triaza-spiro[4.5]dec-1-en-2-yl)-pyrrolidine-1-carboxylic acid tert-butyl ester]",22%
10,"CNc1cc(C)c(CCS(=O)(=O)N2CCC3(CC2)N=C(c2cccc(SC(F)(F)F)c2)NC3=O)c(C)c1 [Compound 1036, 8-[2-(2,6-dimethyl-4-methylamino-phenyl)-ethanesulfonyl]-2-(3-trifluoromethylsulfanyl-phenyl)-1,3,8-triaza-spiro[4.5]dec-1-en-4-one]",82%
11,"CNc1cc(C)c(CCS(=O)(=O)N2CCC3(CC2)N=C(C2CCC(=C(C)C)CC2)NC3=O)c(C)c1 (stereo not drawn) [Compound 1037, 8-[2-(2,6-Dimethyl-4-methylamino-phenyl)-ethanesulfonyl]-2-(4-isopropylidene-cyclohexyl)-1,3,8-triaza-spiro[4.5]dec-1-en-4-one]",87%
12,"CCCC(CCC)C1=NC2(CCN(S(=O)(=O)CCc3c(C)cc(N(C)C(N)=O)cc3C)CC2)C(=O)N1 [Compound 1041, 1-(3,5-dimethyl-4-{2-[4-oxo-2-(1-propyl-butyl)-1,3,8-triaza-spiro[4.5]dec-1-ene-8-sulfonyl]-ethyl}-phenyl)-1-methyl-urea]",38%

# The next lines start with the values.
row,cAMP production activity (%),SMILES
1,109%,"Cc1cc(N(C)C(N)=O)cc(C)c1/C=C/S(=O)(=O)N1CCC2(CC1)N=C(c1cccc(OC(F)(F)C(F)F)c1)NC2=O [Compound 1018, 1-[3,5-dimethyl-4-((E)-2-{4-oxo-2-[3-(1,1,2,2-tetrafluoro-ethoxy)-phenyl]-1,3,8-triaza-spiro[4.5]dec-1-ene-8-sulfonyl}-vinyl)-phenyl]-1-methyl-urea]"
2,92%,"Cc1cc(N(C)C(N)=O)cc(C)c1/C=C/S(=O)(=O)N1CCC2(CC1)N=C(CCCCCCCCC1(C)COC1)NC2=O [Compound 1023, 1-[3,5-Dimethyl-4-((E)-2-{2-[8-(3-methyl-oxetan-3-yl)-octyl]-4-oxo-1,3,8-triaza-spiro[4.5]dec-1-ene-8-sulfonyl}-vinyl)-phenyl]-1-methyl-urea]"
3,114%,"CCCCCC#CCCC1=NC2(CCN(S(=O)(=O)/C=C/c3c(C)cc(N(C)C(N)=O)cc3C)CC2)C(=O)N1 [Compound 1025, 1-{3,5-dimethyl-4-[(E)-2-(2-non-3-ynyl-4-oxo-1,3,8-triaza-spiro[4.5]dec-1-ene-8-sulfonyl)-vinyl]-phenyl}-1-methyl-urea]"
4,82%,"CCCCCCCC#CC1=NC2(CCN(S(=O)(=O)/C=C/c3c(C)cc(N(C)C(N)=O)cc3C)CC2)C(=O)N1 [Compound 1027, 1-{3,5-dimethyl-4-[(E)-2-(2-non-1-ynyl-4-oxo-1,3,8-triaza-spiro[4.5]dec-1-ene-8-sulfonyl)-vinyl]-phenyl}-1-methyl-urea]"
5,104%,"Cc1cc(N(C)C(N)=O)cc(C)c1CCS(=O)(=O)N1CCC2(CC1)N=C(c1ccc3c(c1)OC(F)(F)O3)NC2=O [Compound 1029, 1-(4-{2-[2-(2,2-difluoro-benzo[1,3]dioxol-5-yl)-4-oxo-1,3,8-triaza-spiro[4.5]dec-1-ene-8-sulfonyl]-ethyl}-3,5-dimethyl-phenyl)-1-methyl-urea]"
6,111%,"Cc1cc(N(C)C(N)=O)cc(C)c1CCS(=O)(=O)N1CCC2(CC1)N=C(CCCCCCCCC1(C)COC1)NC2=O [Compound 1031, 1-[3,5-Dimethyl-4-(2-{2-[8-(3-methyl-oxetan-3-yl)-octyl]-4-oxo-1,3,8-triaza-spiro[4.5]dec-1-ene-8-sulfonyl}-ethyl)-phenyl]-1-methyl-urea]"
7,54%,"Cc1cc(N(C)C(=O)OC(C)(C)C)cc(C)c1CCS(=O)(=O)N1CCC2(CC1)N=C(C(C)(F)F)NC2=O [Compound 1034, (4-{2-[2-(1,1-difluoro-ethyl)-4-oxo-1,3,8-triaza-spiro[4.5]dec-1-ene-8-sulfonyl]-ethyl}-3,5-dimethyl-phenyl)-methyl-carbamic acid tert-butyl ester]"
8,77%,"CNc1cc(C)c(CCS(=O)(=O)N2CCC3(CC2)N=C(CCCCCCCC(F)(F)C(F)(F)F)NC3=O)c(C)c1 [Compound 1035, 8-[2-(2,6-Dimethyl-4-methylamino-phenyl)-ethanesulfonyl]-2-(8,8,9,9,9-pentafluoro-nonyl)-1,3,8-triaza-spiro[4.5]dec-1-en-4-one]"
9,111%,"Cc1cc(N(C)C(N)=O)cc(C)c1CCS(=O)(=O)N1CCC2(CC1)N=C(c1cccc(OC(F)(F)C(F)F)c1)NC2=O [Compound 1038, 1-[3,5-Dimethyl-4-(2-{4-oxo-2-[3-(1,1,2,2-tetrafluoro-ethoxy)-phenyl]-1,3,8-triaza-spiro[4.5]dec-1-ene-8-sulfonyl}-ethyl)-phenyl]-1-methyl-urea]"
10,103%,"Cc1cc(N(C)C(N)=O)cc(C)c1CCS(=O)(=O)N1CCC2(CC1)N=C(c1ccc3c(c1)CCCC3)NC2=O [Compound 1039, 1-(3,5-Dimethyl-4-{2-[4-oxo-2-(5,6,7,8-tetrahydro-naphthalen-2-yl)-1,3,8-triaza-spiro[4.5]dec-1-ene-8-sulfonyl]-ethyl}-phenyl)-1-methyl-urea]"
11,111%,"Cc1cc(N(C)C(N)=O)cc(C)c1CCS(=O)(=O)N1CCC2(CC1)N=C([C@@H]1C[C@H](C)C[C@H](C)C1)NC2=O [Compound 1040, 1-(4-{2-[2-((1S,3S,5R)-3,5-dimethyl-cyclohexyl)-4-oxo-1,3,8-triaza-spiro[4.5]dec-1-ene-8-sulfonyl]-ethyl}-3,5-dimethyl-phenyl)-1-methyl-urea]"
12,102%,"Cc1cc(N(C)C(N)=O)cc(C)c1CCS(=O)(=O)N1CCC2(CC1)N=C(C1CCC(CC(F)(F)C(F)(F)F)CC1)NC2=O (stereo not drawn) [Compound 1042, 1-[3,5-dimethyl-4-(2-{4-oxo-2-[4-(2,2,3,3,3-pentafluoro-propyl)-cyclohexyl]-1,3,8-triaza-spiro[4.5]dec-1-ene-8-sulfonyl}-ethyl)-phenyl]-1-methyl-urea]"
